{
  "source": "patent US20040266002A1",
  "about": "“Use of abscisic acid in somatic embryogenesis of pine trees” (Weyerhaeuser Company, priority 2003, published 2004)",
  "tested_on": "Loblolly pine (Pinus taeda) pre-cotyledonary somatic embryos",
  "assay": "Abscisic acid pulse during development of Loblolly pine somatic embryos",
  "type": "cell-based",
  "procedure": "Development: Pre-cotyledonary somatic embryos were transferred from maintenance medium into solid development medium BM3 containing 25 mg/L abscisic acid for four weeks to yield treated pre-cotyledonary somatic embryos. The development medium either lacks growth hormones entirely, or has them present only at very low levels. The further inclusion of an adsorbent composition in this medium is advantageous. The adsorbent composition is normally present at a concentration of about 0.1-5 g/L, more generally about 0.25-2.5 g/L. Gelrite was included at a concentration of about 0.25%.\nAfter culturing pre-cotyledonary embryos on solid development medium containing 25 mg/L abscisic acid for 4 weeks, the abscisic acid-treated pre-cotyledonary embryos were transferred on a filter paper support to solid development medium without abscisic acid. The solid development medium without abscisic acid had the same composition as development medium BM3. Development is preferably carried out in complete darkness at a temperature of 22°-25 C until elongated cotyledonary embryos have developed. Development time is typically several weeks, such as 10 to 12 weeks.\nFemale gametophytes containing zygotic embryos were removed from seeds of genotypes A, B and C, as described in EXAMPLE 1, above. The induction and maintenance stages were as described in EXAMPLE 1.\nTo test the effect of a pulse of abscisic acid, pre-cotyledonary embryos were transferred to a filter paper support placed on solid development medium BM3 containing abscisic acid. Six different treatments were tested. The concentration of abscisic acid, and the time period during which the pre-cotyledonary embryos were exposed to the abscisic acid during each treatment, are shown in Table 3.\nAs a control, pre-cotyledonary embryos were maintained in development medium BM3 containing 25 mg/L abscisic acid for twelve weeks. After twelve weeks, both control and experimental embryos were taken through the standard post-development treatments as described in EXAMPLE 1. Germination was assessed after twelve weeks on germination media in the light at room temperature.",
  "note": "Marks after values point to notes of the source that are not given here.",
  "data": [
    {"compound": "CC1=CC(=O)CC(C)(C)[C@@]1(O)/C=C/C(C)=C\\C(=O)O", "note": "[Abscisic Acid, abscisic acid]", "values": [
      {"measurement": "Mean Dry Weight", "setting": "All genotypes combined, Control: 25 mg/L abscisic acid weeks 1-12", "value": 0.37, "unit": "mg/emb"},
      {"measurement": "Mean Dry Weight", "setting": "All genotypes combined, Treatment 1: 25 mg/L weeks 1-3, 0 weeks 4-12", "value": "0.49* mg/emb"},
      {"measurement": "Mean Dry Weight", "setting": "All genotypes combined, Treatment 2: 25 mg/L weeks 1-5, 0 weeks 6-12", "value": "0.47* mg/emb"},
      {"measurement": "Mean Dry Weight", "setting": "All genotypes combined, Treatment 3: 25 mg/L weeks 1-7, 0 weeks 8-12", "value": "0.47* mg/emb"},
      {"measurement": "Mean Dry Weight", "setting": "All genotypes combined, Treatment 4: 25 mg/L weeks 1-9, 0 weeks 10-12", "value": "0.48* mg/emb"},
      {"measurement": "Mean Dry Weight", "setting": "All genotypes combined, Treatment 5: 25 mg/L weeks 1-3, 15 weeks 4-5, 10 weeks 6-7, 5 weeks 8-9, 0 weeks 10-12", "value": "0.50* mg/emb"},
      {"measurement": "Mean Dry Weight", "setting": "All genotypes combined, Treatment 6: 25 mg/L weeks 1-5, 15 weeks 6-7, 10 weeks 8-9, 0 weeks 10-12", "value": "0.48* mg/emb"},
      {"measurement": "Embryo morphology at the end of development", "setting": "both control (continuous abscisic acid) and experimental (pulse) embryos", "value": "good morphological form, good cotyledon development, and normal color"},
      {"measurement": "Mean Dry Weight", "setting": "genotype A, Control: 25 mg/L abscisic acid weeks 1-12", "value": 0.27, "unit": "mg/emb"},
      {"measurement": "Mean Dry Weight", "setting": "genotype A, Treatment 1: 25 mg/L weeks 1-3, 0 weeks 4-12", "value": "0.38* mg/emb"},
      {"measurement": "Mean Dry Weight", "setting": "genotype A, Treatment 2: 25 mg/L weeks 1-5, 0 weeks 6-12", "value": "0.36* mg/emb"},
      {"measurement": "Mean Dry Weight", "setting": "genotype A, Treatment 3: 25 mg/L weeks 1-7, 0 weeks 8-12", "value": 0.34, "unit": "mg/emb"},
      {"measurement": "Mean Dry Weight", "setting": "genotype A, Treatment 4: 25 mg/L weeks 1-9, 0 weeks 10-12", "value": 0.32, "unit": "mg/emb"},
      {"measurement": "Mean Dry Weight", "setting": "genotype A, Treatment 5: 25 mg/L weeks 1-3, 15 weeks 4-5, 10 weeks 6-7, 5 weeks 8-9, 0 weeks 10-12", "value": "0.36* mg/emb"},
      {"measurement": "Mean Dry Weight", "setting": "genotype A, Treatment 6: 25 mg/L weeks 1-5, 15 weeks 6-7, 10 weeks 8-9, 0 weeks 10-12", "value": 0.33, "unit": "mg/emb"},
      {"measurement": "Mean Dry Weight", "setting": "genotype B, Control: 25 mg/L abscisic acid weeks 1-12", "value": 0.31, "unit": "mg/emb"},
      {"measurement": "Mean Dry Weight", "setting": "genotype B, Treatment 1: 25 mg/L weeks 1-3, 0 weeks 4-12", "value": 0.32, "unit": "mg/emb"},
      {"measurement": "Mean Dry Weight", "setting": "genotype B, Treatment 2: 25 mg/L weeks 1-5, 0 weeks 6-12", "value": 0.31, "unit": "mg/emb"},
      {"measurement": "Mean Dry Weight", "setting": "genotype B, Treatment 3: 25 mg/L weeks 1-7, 0 weeks 8-12", "value": 0.37, "unit": "mg/emb"},
      {"measurement": "Mean Dry Weight", "setting": "genotype B, Treatment 4: 25 mg/L weeks 1-9, 0 weeks 10-12", "value": 0.37, "unit": "mg/emb"},
      {"measurement": "Mean Dry Weight", "setting": "genotype B, Treatment 5: 25 mg/L weeks 1-3, 15 weeks 4-5, 10 weeks 6-7, 5 weeks 8-9, 0 weeks 10-12", "value": 0.36, "unit": "mg/emb"},
      {"measurement": "Mean Dry Weight", "setting": "genotype B, Treatment 6: 25 mg/L weeks 1-5, 15 weeks 6-7, 10 weeks 8-9, 0 weeks 10-12", "value": 0.36, "unit": "mg/emb"},
      {"measurement": "Mean Dry Weight", "setting": "genotype C, Control: 25 mg/L abscisic acid weeks 1-12", "value": 0.55, "unit": "mg/emb"},
      {"measurement": "Mean Dry Weight", "setting": "genotype C, Treatment 1: 25 mg/L weeks 1-3, 0 weeks 4-12", "value": "0.79* mg/emb"},
      {"measurement": "Mean Dry Weight", "setting": "genotype C, Treatment 2: 25 mg/L weeks 1-5, 0 weeks 6-12", "value": "0.80* mg/emb"},
      {"measurement": "Mean Dry Weight", "setting": "genotype C, Treatment 3: 25 mg/L weeks 1-7, 0 weeks 8-12", "value": 0.69, "unit": "mg/emb"},
      {"measurement": "Mean Dry Weight", "setting": "genotype C, Treatment 4: 25 mg/L weeks 1-9, 0 weeks 10-12", "value": "0.76* mg/emb"},
      {"measurement": "Mean Dry Weight", "setting": "genotype C, Treatment 5: 25 mg/L weeks 1-3, 15 weeks 4-5, 10 weeks 6-7, 5 weeks 8-9, 0 weeks 10-12", "value": "0.90* mg/emb"},
      {"measurement": "Mean Dry Weight", "setting": "genotype C, Treatment 6: 25 mg/L weeks 1-5, 15 weeks 6-7, 10 weeks 8-9, 0 weeks 10-12", "value": "0.84* mg/emb"},
      {"measurement": "Dry weight of embryos receiving the abscisic acid pulse versus control embryos", "setting": "pulse treatments versus control with 25 mg/L abscisic acid for twelve weeks", "value": "higher dry weight than the control embryos"}
    ]}
  ]
}
